According to patent publication US10988459B2 (priority 2015, dated 2021):
pKi: −log10 of the molar value.

biological target: human RIP1 kinase domain (2-375) (Homo sapiens (Human), UniProt Q13546); test: biochemical; type: biochemical; conditions: human RIP1 kinase domain (2-375), Transcreener ADP assay, 50 uM ATP, 2 hours incubation; read-out: RIP1 Ki
In short: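 50 nM purified kinase domain from baculovirus-infected insect cells, incubated 2 h with compound in 50 mM Hepes pH 7.5, 30 mM MgCl2, 1 mM DTT, 50 uM ATP, 0.002% Brij-35, 0.5% DMSO. ADP formation read by Transcreener FP at 633 nm excitation. Ki^app fitted with the Morrison tight-binding equation.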

human RIP1 kinase domain (2-375), sequence (Q13546 2-375): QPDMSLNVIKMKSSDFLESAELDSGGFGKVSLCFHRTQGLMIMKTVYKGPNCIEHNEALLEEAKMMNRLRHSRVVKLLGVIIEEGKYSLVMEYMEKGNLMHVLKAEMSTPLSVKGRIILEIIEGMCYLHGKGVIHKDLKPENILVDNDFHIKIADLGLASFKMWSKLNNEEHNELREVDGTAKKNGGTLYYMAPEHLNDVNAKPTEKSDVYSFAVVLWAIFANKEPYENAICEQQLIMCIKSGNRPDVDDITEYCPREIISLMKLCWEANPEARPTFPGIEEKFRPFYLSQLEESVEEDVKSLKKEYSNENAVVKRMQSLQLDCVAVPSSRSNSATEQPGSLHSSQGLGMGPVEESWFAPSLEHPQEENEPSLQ

Compound | pKi
Cc1cc2n(n1)CCC(NC(=O)c1ncn(CC3CCC(F)(F)CC3)n1)C(=O)N2C (centres unmarked) [Example 246, 1-((4,4-difluorocyclohexyl)methyl)-N-(2,4-dimethyl-5-oxo-5,6,7,8-tetrahydro-4H-pyrazolo[1,5-a][1,3]diazepin-6-yl)-1H-1,2,4-triazole-3-carboxamide] | 6.16
Cc1cc2n(n1)CCC(NC(=O)c1ncn(CC3CC(F)(F)C3)n1)C(=O)N2C (centres unmarked) [Example 248, 1-((3,3-difluorocyclobutyl)methyl)-N-(2,4-dimethyl-5-oxo-5,6,7,8-tetrahydro-4H-pyrazolo[1,5-a][1,3]diazepin-6-yl)-1H-1,2,4-triazole-3-carboxamide] | 5.96
Cc1cc2n(n1)CCC(NC(=O)c1ncn(CCC(F)(F)F)n1)C(=O)N2C (centres unmarked) [Example 250, N-(2,4-dimethyl-5-oxo-5,6,7,8-tetrahydro-4H-pyrazolo[1,5-a][1,3]diazepin-6-yl)-1-(3,3,3-trifluoropropyl)-1H-1,2,4-triazole-3-carboxamide] | 6.00
Cc1cc2n(n1)CCC(NC(=O)c1ncn(CC3CCCC3)n1)C(=O)N2C (centres unmarked) [Example 251, 1-(cyclopentylmethyl)-N-(2,4-dimethyl-5-oxo-5,6,7,8-tetrahydro-4H-pyrazolo[1,5-a][1,3]diazepin-6-yl)-1H-1,2,4-triazole-3-carboxamide] | 6.87
CC(C1CCn2nnc(C(=O)N[C@H]3COc4ccccc4N(C)C3=O)c2C1)C(F)(F)F (stereo partly drawn) [Example 252, N—((S)-5-methyl-4-oxo-2,3,4,5-tetrahydrobenzo[b][1,4]oxazepin-3-yl)-5-(1,1,1-trifluoropropan-2-yl)-4,5,6,7-tetrahydro-[1,2,3]triazolo[1,5-a]pyridine-3-carboxamide] | 7.15
Cc1cc2n(n1)CCC(NC(=O)c1ncn(CC3CCCCC3)n1)C(=O)N2C (centres unmarked) [Example 253, 1-(cyclohexylmethyl)-N-(2,4-dimethyl-5-oxo-5,6,7,8-tetrahydro-4H-pyrazolo[1,5-a][1,3]diazepin-6-yl)-1H-1,2,4-triazole-3-carboxamide] | 6.77
Cc1cc2n(n1)CC[C@H](NC(=O)c1ncn(CC3CC3(F)F)n1)C(=O)N2C (stereo partly drawn) [Example 262, 1-((2,2-difluorocyclopropyl)methyl)-N—((S)-2,4-dimethyl-5-oxo-5,6,7,8-tetrahydro-4H-pyrazolo[1,5-a][1,3]diazepin-6-yl)-1H-1,2,4-triazole-3-carboxamide] | 6.29
CC[C@@]1(C)OCc2cnc(C(=O)NC3CCn4cnc(C)c4N(C)C3=O)cc21 (stereo partly drawn) [Example 263, (1R)—N-(1,9-dimethyl-2-oxo-2,3,4,5-tetrahydro-1H-imidazo[1,5-a][1,3]diazepin-3-yl)-1-ethyl-1-methyl-1,3-dihydrofuro[3,4-c]pyridine-6-carboxamide] | 6.07
CC[C@@]1(C)OCc2cc(C(=O)NC3CCn4nc(-c5ccccc5)cc4N(C)C3=O)ncc21 (stereo partly drawn) [Example 264, (3R)-3-ethyl-3-methyl-N-(4-methyl-5-oxo-2-phenyl-5,6,7,8-tetrahydro-4H-pyrazolo[1,5-a][1,3]diazepin-6-yl)-1,3-dihydrofuro[3,4-c]pyridine-6-carboxamide] | 6.63
CC[C@]1(C)OCc2cc(C(=O)NC3CCn4nc(-c5ccccc5)cc4N(C)C3=O)ncc21 (stereo partly drawn) [Example 265, (3S)-3-ethyl-3-methyl-N-(4-methyl-5-oxo-2-phenyl-5,6,7,8-tetrahydro-4H-pyrazolo[1,5-a][1,3]diazepin-6-yl)-1,3-dihydrofuro[3,4-c]pyridine-6-carboxamide] | 5.31
Cc1cc2n(n1)CC[C@H](NC(=O)c1cc3c(cn1)COC3(C)CC(F)(F)F)C(=O)N2C (stereo partly drawn) [Example 266, N—((S)-2,4-dimethyl-5-oxo-5,6,7,8-tetrahydro-4H-pyrazolo[1,5-a][1,3]diazepin-6-yl)-1-m ethyl-1-(2,2,2-trifluoroethyl)-1,3-dihydrofuro[3,4-c]pyridine-6-carboxamide] | 5.89
CN1C(=O)[C@@H](NC(=O)c2cc3c(cn2)COC3(C)C2CC2)COc2ccccc21 (stereo partly drawn) [Example 267, 1-cyclopropyl-1-methyl-N—((S)-5-methyl-4-oxo-2,3,4,5-tetrahydrobenzo[b][1,4]oxazepin-3-yl)-1,3-dihydrofuro[3,4-c]pyridine-6-carboxamide] | 7.43
Cc1cc2n(n1)CC[C@H](NC(=O)c1ncn(C(C)c3ccccc3)n1)C(=O)N2C (stereo partly drawn) [Example 271, N—((S)-2,4-dimethyl-5-oxo-5,6,7,8-tetrahydro-4H-pyrazolo[1,5-a][1,3]diazepin-6-yl)-1-(1-phenylethyl)-1H-1,2,4-triazole-3-carboxamide] | 7.03
Cc1nn2c(c1C)N(C)C(=O)[C@@H](NC(=O)c1ncn(Cc3cccc(F)c3F)n1)CC2 [Example 272, (S)-1-(2,3-difluorobenzyl)-N-(2,3,4-trimethyl-5-oxo-5,6,7,8-tetrahydro-4H-pyrazolo[1,5-a][1,3]diazepin-6-yl)-1H-1,2,4-triazole-3-carboxamide] | 7.34
Cc1nn2c(c1C)N(C)C(=O)[C@@H](NC(=O)c1ncn(Cc3ccc(F)c(F)c3)n1)CC2 [Example 273, (S)-1-(3,4-difluorobenzyl)-N-(2,3,4-trimethyl-5-oxo-5,6,7,8-tetrahydro-4H-pyrazolo[1,5-a][1,3]diazepin-6-yl)-1H-1,2,4-triazole-3-carboxamide] | 7.33
Cc1nn2c(c1C)N(C)C(=O)[C@@H](NC(=O)c1ncn(Cc3ccccc3)n1)CC2 [Example 274, (S)-1-benzyl-N-(2,3,4-trimethyl-5-oxo-5,6,7,8-tetrahydro-4H-pyrazolo[1,5-a][1,3]diazepin-6-yl)-1H-1,2,4-triazole-3-carboxamide] | 7.40

Second part, the compound after the results:

pKi | Compound
6.66 | Cc1cc2n(n1)CCC(NC(=O)c1ncn(CC3CCC3)n1)C(=O)N2C (centres unmarked) [Example 247, 1-(cyclobutylmethyl)-N-(2,4-dimethyl-5-oxo-5,6,7,8-tetrahydro-4H-pyrazolo[1,5-a][1,3]diazepin-6-yl)-1H-1,2,4-triazole-3-carboxamide]
7.04 | Cc1cc2n(n1)CCC(NC(=O)c1ncn(Cc3ccc(Cl)cc3)n1)C(=O)N2C (centres unmarked) [Example 249, 1-(4-chlorobenzyl)-N-(2,4-dimethyl-5-oxo 6,7,8-tetrahydro-4H-pyrazolo[1,5-a][1,3]diazepin-6-yl)-1H-1,2,4-triazole-3-carboxamide]
5.66 | CN1C(=O)C(NC(=O)c2ncn(CC3CCOCC3)n2)CCn2nc(C3CC3)cc21 (centres unmarked) [Example 254, N-(2-cyclopropyl-4-methyl-5-oxo-5,6,7,8-tetrahydro-4H-pyrazolo[1,5-a][1,3]diazepin-6-yl)-1-((tetrahydro-2H-pyran-4-yl)methyl)-1H-1,2,4-triazole-3-carboxamide]
6.38 | CN1C(=O)C(NC(=O)c2ncn(CC3CCC(F)(F)CC3)n2)CCn2nc(C3CC3)cc21 (centres unmarked) [Example 255, N-(2-cyclopropyl-4-methyl-5-oxo-5,6,7,8-tetrahydro-4H-pyrazolo[1,5-a][1,3]diazepin-6-yl)-1-((4,4-difluorocyclohexyl)methyl)-1H-1,2,4-triazole-3-carboxamide]
6.68 | CN1C(=O)C(NC(=O)c2ncn(CC3CCC3)n2)CCn2nc(C3CC3)cc21 (centres unmarked) [Example 256, 1-(cyclobutylmethyl)-N-(2-cyclopropyl-4-methyl-5-oxo-5,6,7,8-tetrahydro-4H-pyrazolo[1,5-a][1,3]diazepin-6-yl)-1H-1,2,4-triazole-3-carboxamide]
7.08 | CN1C(=O)C(NC(=O)c2ncn(Cc3ccc(F)cc3)n2)CCn2nc(C3CC3)cc21 (centres unmarked) [Example 257, N-(2-cyclopropyl-4-methyl-5-oxo-5,6,7,8-tetrahydro-4H-pyrazolo[1,5-a][1,3]diazepin-6-yl)-1-(4-fluorobenzyl)-1H-1,2,4-triazole-3-carboxamide]
5.80 | CN1C(=O)C(NC(=O)c2ncn(CCC(F)(F)F)n2)CCn2nc(C3CC3)cc21 (centres unmarked) [Example 258, N-(2-cyclopropyl-4-methyl-5-oxo-5,6,7,8-tetrahydro-4H-pyrazolo[1,5-a][1,3]diazepin-6-yl)-1-(3,3,3-trifluoropropyl)-1H-1,2,4-triazole-3-carboxamide]
6.10 | Cc1cccc(Cn2cnc(C(=O)NC3CCn4nc(C5CC5)cc4N(C)C3=O)n2)n1 (centres unmarked) [Example 259, N-(2-cyclopropyl-4-methyl-5-oxo-5,6,7,8-tetrahydro-4H-pyrazolo[1,5-a][1,3]diazepin-6-yl)-1-((6-methylpyridin-2-yl)methyl)-1H-1,2,4-triazole-3-carboxamide]
5.72 | CN1C(=O)C(NC(=O)c2ncn(CC3CC3)n2)CCn2nc(C3CC3)cc21 (centres unmarked) [Example 260, N-(2-cyclopropyl-4-methyl-5-oxo-5,6,7,8-tetrahydro-4H-pyrazolo[1,5-a][1,3]diazepin-6-yl)-1-(cyclopropylmethyl)-1H-1,2,4-triazole-3-carboxamide]
6.98 | CN1C(=O)C(NC(=O)c2ncn(CC3CCCC3)n2)CCn2nc(C3CC3)cc21 (centres unmarked) [Example 261, 1-(cyclopentylmethyl)-N-(2-cyclopropyl-4-methyl-5-oxo-5,6,7,8-tetrahydro-4H-pyrazolo[1,5-a][1,3]diazepin-6-yl)-1H-1,2,4-triazole-3-carboxamide]
7.01 | Cc1cc2n(n1)CCC(NC(=O)c1ncn(Cc3ccc(F)cc3)n1)C(=O)N2C (centres unmarked) [Example 268, N-(2,4-dimethyl-5-oxo-5,6,7,8-tetrahydro-4H-pyrazolo[1,5-a][1,3]diazepin-6-yl)-1-(4-fluorobenzyl)-1H-1,2,4-triazole-3-carboxamide]
6.09 | CN1C(=O)C(NC(=O)c2ncn(CC3CC(F)(F)C3)n2)CCn2nc(C3CC3)cc21 (centres unmarked) [Example 269, N-(2-cyclopropyl-4-methyl-5-oxo-5,6,7,8-tetrahydro-4H-pyrazolo[1,5-a][1,3]diazepin-6-yl)-1-((3,3-difluorocyclobutyl)methyl)-1H-1,2,4-triazole-3-carboxamide]
7.05 | Cc1cc2n(n1)CC[C@H](NC(=O)c1ncn(C(C)c3ccc(F)cc3)n1)C(=O)N2C (stereo partly drawn) [Example 270, N—((S)-2,4-dimethyl-5-oxo-5,6,7,8-tetrahydro-4H-pyrazolo[1,5-a][1,3]diazepin-6-yl)-1-(1-(4-fluorophenyl)ethyl)-1H-1,2,4-triazole-3-carboxamide]
